Experimental data published in ChEMBL document CHEMBL1147127, “Halogenated cyclic peptides isolated from the sponge Corticium sp” (J Nat Prod, 2007).

System: HCT-116
Experiment: Cytotoxicity against HCT116 cells
Type: cell-based
Conditions: human; call rule not given here

Which Activity does the source give for `Cn1c(C(=O)NCC(=O)N[C@H]2CNC(=O)[C@@H](Cc3c[nH]c4ccc(Br)cc34)NC(=O)[C@@H](O)CNC(=O)[C@@H](CC(N)=O)NC2=O)cc(Cl)c1Cl` [CYCLOCINAMIDE B] here?
The Activity was “Not Active”.
